# Reference: ChEMBL document CHEMBL5725290, “IRE-1α inhibitors” (2017)
# Target: Serine/threonine-protein kinase/endoribonuclease IRE1 (Homo sapiens, UniProt O75460)
# Test: IRE-1alpha Assay: A fusion protein comprising glutathione S transferase (GST) and human IRE-1α (GST-IRE-1α) obtained from a 500 ml baculovirus-infected insect cell culture can be used to measure IRE-1α activity in vitro. Five μl of a reaction mixture comprising 1× reaction buffer (5× reaction buffer is 100 mM Hepes pH 7.5, 250 mM KOAc, 2.5 mM MgCl2), 3 mM DTT, and 0.4% polyethylene glycol water is added to each well of 384 well plates. Twenty-five nanoliters of a 1 mM test compound solution are added to test wells. Three μl of a 128 ng/ml IRE-1α preparation are added to each test well and to positive control wells (final concentration 5.82 ng/well). Negative control wells contain only reaction mixture and test compound. After spinning the plates at 1200 rpm for 30 seconds, 3 μl of an IRE-1α human mini-XBP-1 mRNA stem-loop substrate 5'-[…]-3' (SEQ ID NO:1), labeled with the fluorescent dye Cy5 at the 5' end and Black Hole Quencher 2 (BH2) at the 3' end, are added to each well of a control plate. The plates are again spun at 1200 rpm for 30 seconds. Final concentrations for the assay are: 63 nM IRE-1α substrate, 5.82 ng IRE-1α protein, and 2.5 μM test compound. The plates are covered with lids and incubated for one hour at 30° C. The plates are then transferred to an ACQUEST™ microplate reader. Data is analyzed using data analysis software, and the percent activity of IRE-1α is calculated.
# Chain of Serine/threonine-protein kinase/endoribonuclease IRE1 (O75460 whole entry, the tested form may be a part): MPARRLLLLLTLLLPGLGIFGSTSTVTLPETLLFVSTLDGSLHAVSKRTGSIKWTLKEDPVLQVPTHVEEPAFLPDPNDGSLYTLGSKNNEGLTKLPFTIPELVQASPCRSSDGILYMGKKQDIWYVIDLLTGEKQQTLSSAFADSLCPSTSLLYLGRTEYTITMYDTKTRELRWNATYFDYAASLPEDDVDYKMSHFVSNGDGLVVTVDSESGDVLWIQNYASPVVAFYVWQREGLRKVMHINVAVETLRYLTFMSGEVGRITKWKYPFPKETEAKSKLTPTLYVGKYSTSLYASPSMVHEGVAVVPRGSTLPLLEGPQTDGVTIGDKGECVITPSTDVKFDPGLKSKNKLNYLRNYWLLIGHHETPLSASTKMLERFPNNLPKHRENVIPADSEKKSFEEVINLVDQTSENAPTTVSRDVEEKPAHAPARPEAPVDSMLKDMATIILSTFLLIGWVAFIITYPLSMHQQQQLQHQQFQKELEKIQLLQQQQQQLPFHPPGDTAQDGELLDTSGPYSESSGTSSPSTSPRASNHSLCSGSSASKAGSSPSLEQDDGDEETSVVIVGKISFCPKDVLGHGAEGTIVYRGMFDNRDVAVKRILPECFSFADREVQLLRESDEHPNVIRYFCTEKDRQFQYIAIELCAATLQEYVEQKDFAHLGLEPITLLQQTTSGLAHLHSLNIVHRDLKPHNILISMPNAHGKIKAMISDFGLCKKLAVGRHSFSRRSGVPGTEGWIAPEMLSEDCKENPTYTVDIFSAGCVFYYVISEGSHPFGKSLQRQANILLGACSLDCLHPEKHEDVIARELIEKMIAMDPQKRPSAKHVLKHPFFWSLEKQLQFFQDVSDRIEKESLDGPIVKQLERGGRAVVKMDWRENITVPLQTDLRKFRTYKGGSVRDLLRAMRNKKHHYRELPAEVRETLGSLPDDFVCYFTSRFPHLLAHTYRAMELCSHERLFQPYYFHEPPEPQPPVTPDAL
row,SMILES,EC50
1,Cc1nc(N2CCc3c(ccc(O)c3C=O)C2)sc1C(=O)N1CCOCC1,> 10 µM
2,O=Cc1c(O)ccc2nc(-c3cccc(C(=O)N4CCOCC4)c3)ccc12,< 10 µM
3,CC1CCN(C(=O)c2ccc(-c3ccc4c(C=O)c(O)ccc4n3)cc2)CC1,> 10 µM
4,O=Cc1c(O)ccc2nc(-c3ccc(C(=O)N4CCCC4)cc3)ccc12,< 10 µM
5,O=Cc1c(O)ccc2nc(N3CCC(NC(=O)CN4CCOCC4)C3)ccc12 (stereo not given),< 10 µM
6,CC(=O)NC1CCN(c2ccc3c(C=O)c(O)ccc3n2)C1 (stereo not given),< 10 µM
7,CN1CCN(C2CCN(c3nc4ccc(O)c(C=O)c4s3)C2)CC1 (stereo not given),> 10 µM
8,CC(C)N1CCN(c2nc3ccc(O)c(C=O)c3s2)CC1,> 10 µM
9,CN1CCN(C(=O)c2ccc(-c3nc4ccc(O)c(C=O)c4s3)s2)CC1,> 10 µM
10,CC1CCN(C(=O)c2ccc(-c3nc4ccc(O)c(C=O)c4s3)cc2)CC1,> 10 µM
11,O=Cc1c(O)ccc2nc(-c3ccc(C(=O)O)cc3)[nH]c12,> 10 µM
12,COC(=O)c1ccc(-c2nc3ccc(O)c(C=O)c3[nH]2)cc1,> 10 µM
13,O=Cc1c(O)ccc2nc(-c3ccc(C(=O)NCCN4CCOCC4)cc3)[nH]c12,> 10 µM
14,O=Cc1c(O)ccc2nc(-c3ccc(C(=O)N4CCOCC4)cc3)[nH]c12,> 10 µM
15,CN1CCN(C(=O)c2ccc(-c3nc4ccc(O)c(C=O)c4[nH]3)cc2)CC1,> 10 µM

# Further lines, results first:
row,EC50,SMILES
1,< 10 µM,Cc1c(Br)c(=O)oc2c(C=O)c(O)ccc12
2,> 10 µM,O=Cc1c(O)ccc2cc(-c3ccc(Br)cc3)c(=O)oc12
3,< 10 µM,Cc1c(-c2ccc(C(=O)N3CCN(C)CC3)cc2)c(=O)oc2c(C=O)c(O)ccc12
4,> 10 µM,CCN(CC)CCc1c(C)c2ccc(O)c(C=O)c2oc1=O
5,< 10 µM,COc1cc2c(C)c(Br)c(=O)oc2c(C=O)c1O
6,< 10 µM,Cc1c(Br)c(=O)oc2c(C=O)c(O)c(F)cc12
7,< 10 µM,Cc1c(-c2cccc(C(=O)N3CCOCC3)c2)c(=O)oc2c(C=O)c(O)ccc12
8,> 10 µM,Cc1c(Cc2ccccc2)c(=O)oc2c(C=O)c(O)c(O)cc12
9,< 10 µM,Cc1c(-c2ccc(C(=O)N3CCCC3)cc2)c(=O)oc2c(C=O)c(O)ccc12
10,< 10 µM,Cc1c(-c2ccc(C(=O)N3CCC(C)CC3)cc2)c(=O)oc2c(C=O)c(O)ccc12
11,> 10 µM,Cc1c(-c2cccc(C(=O)N3CCCC3)c2)c(=O)oc2c(C=O)c(O)ccc12
12,< 10 µM,Cc1cc(=O)oc2c(C=O)c(O)c(F)cc12
13,< 10 µM,Cc1c(-c2ccc(N3CCN(C)CC3)cc2)c(=O)oc2c(C=O)c(O)c(F)cc12
14,< 10 µM,COc1cc2c(C)c(-c3ccc(C(=O)N4CCOCC4)cc3)c(=O)oc2c(C=O)c1O
15,< 10 µM,Cc1c(CCC(=O)N2CCOCC2)c(=O)oc2c(C=O)c(O)ccc12
